Laboratory results as given in article PMC6095608 (PLoS ONE, 2018).

Legend:
human OCT2 = tested on: human OCT2; set-up: method as in PMID 18490433; details: 5 μM efavirenz, 1 min incubation; cited from earlier work
OCT2 = target: T1, OCT2 (Homo sapiens, UniProt O15244); assay: Transcellular transport assay across MDCK-OCT2 monolayers; type: cell-based; details: 10 μM efavirenz, 2 h
T1 construct: expressed in transfected cells; host or cells: MDCKII (MDCK-OCT2)
T1 sequence (O15244 1-555): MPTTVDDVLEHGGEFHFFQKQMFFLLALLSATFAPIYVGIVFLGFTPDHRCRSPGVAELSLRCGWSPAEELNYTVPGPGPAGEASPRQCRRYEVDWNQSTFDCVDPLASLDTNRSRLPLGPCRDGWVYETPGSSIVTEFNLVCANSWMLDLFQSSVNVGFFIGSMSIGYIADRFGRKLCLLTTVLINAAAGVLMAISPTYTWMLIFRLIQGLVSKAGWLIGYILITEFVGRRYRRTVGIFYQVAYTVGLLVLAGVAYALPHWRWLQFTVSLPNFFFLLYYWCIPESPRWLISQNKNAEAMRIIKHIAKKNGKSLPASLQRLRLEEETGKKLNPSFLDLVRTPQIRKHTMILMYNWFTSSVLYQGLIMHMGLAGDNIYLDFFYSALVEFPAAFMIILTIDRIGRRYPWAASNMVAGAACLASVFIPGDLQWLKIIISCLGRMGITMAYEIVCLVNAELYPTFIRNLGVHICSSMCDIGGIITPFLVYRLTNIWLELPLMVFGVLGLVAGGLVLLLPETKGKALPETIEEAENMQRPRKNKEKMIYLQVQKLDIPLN
Experimental: Transport experiments employing polarized monolayers of MDCK-OCT1, MDCK-OCT2, or MDCK-MATE1 cell lines as well as doubly transfected MDCK-OCT1-MATE1 or MDCK-OCT2-MATE1 lines and the non-transfected parental control MDCK-Co cells grown on Transwell 3402 cell culture inserts (3.0 μm pore size, 24 mm diameter; Costar, Corning, NY) were performed as described previously. The number of cells per well was 0.5 x 10^6 in all experiments, and the cells were incubated for 3 days to confluence in standard cultivation medium MEM (Gibco) + 10% FBS. After 3 days’ cultivation, medium was removed from both sides and the cells of the monolayer were washed using pre-warmed PBS. […] The pH of the medium on the basolateral side was 7.4, while that on the apical side was set to 6.0 (adjusted by adding HCl or NaOH, when necessary) to ensure optimal MATE1 transport activity. Cells were incubated at 37°C in 5% CO2 for 2 hours. At the end of the incubation period, 50 μl aliquots were sampled and the rest of the medium was immediately removed. The cells were then washed twice with ice-cold PBS, the membranes supporting cellular monolayers were excised, and the cells were dissolved in a 0.02% SDS solution. The radioactivity of the collected samples and lysed monolayers was measured by liquid scintillation counting (Tri-Carb 2910 TR Perkin Elmer), and the protein concentration of the cell lysates was quantified using the BCA protein assay. Transport rates were recorded in pmol per mg protein in the cellular monolayer.

SMILES: O=C1Nc2ccc(Cl)cc2[C@@](C#CC2CC2)(C(F)(F)F)O1 [efavirenz, Efavirenz]
- Inhibitory effect on OCT2 with MPP+ as substrate (human OCT2): did not detect any inhibitory effect
- Effect on basolateral-to-apical transport of [3H]-MPP+ (OCT2; 2 nM MPP+, MDCK-OCT2): Inhibition
- Effect on intracellular accumulation of [3H]-MPP+ (OCT2; 2 nM MPP+, MDCK-OCT2 monolayers): significantly reduced
- Effect on intracellular accumulation of [3H]-lamivudine (OCT2; 10 nM lamivudine, MDCK-OCT2): significantly reduced
- Effect on transcellular transport of [3H]-lamivudine (OCT2; 10 nM lamivudine, basal to apical, MDCK-OCT2): significantly inhibited
